≈ marks a conversion by molar mass, not a printed value.
Experiments:
[1] = system: Candida albicans; experiment: Antifungal activity against Candida albicans by broth microdilution technique; format: functional, organism-based
[2] = system: Enterococcus faecalis; experiment: Antibacterial activity against Streptococcus faecalis by broth microdilution technique; format: functional, organism-based
[3] = system: Candida parapsilosis; experiment: Antifungal activity against Candida parapsilosis ATCC 22019 by broth microdilution technique; format: functional, organism-based; settings: Lodderomyces parapsilosis
[4] = system: Klebsiella pneumoniae; experiment: Antibacterial activity against Klebsiella pneumoniae by broth microdilution technique; format: functional, organism-based
[5] = system: Cryptococcus neoformans; experiment: Antifungal activity against Cryptococcus neoformans by broth microdilution technique; format: functional, organism-based
[6] = system: Staphylococcus aureus; experiment: Antibacterial activity against Staphylococcus aureus by broth microdilution technique; format: functional, organism-based
[7] = system: Escherichia coli; experiment: Antibacterial activity against Escherichia coli by broth microdilution technique; format: functional, organism-based
[8] = system: Aspergillus fumigatus; experiment: Antifungal activity against Aspergillus fumigatus by broth microdilution technique; format: functional, organism-based
[9] = system: Sporothrix schenckii; experiment: Antifungal activity against Sporothrix schenckii by broth microdilution technique; format: functional, organism-based
[10] = system: Pseudomonas aeruginosa; experiment: Antibacterial activity against Pseudomonas aeruginosa by broth microdilution technique; format: functional, organism-based
[11] = system: Trichophyton benhamiae; experiment: Antifungal activity against Trichophyton mentagrophytes by broth microdilution technique; format: functional, organism-based, Arthroderma benhamiae
[12] = Enterococcus faecalis, read-out: IC50
[13] = Klebsiella pneumoniae, read-out: IC50
[14] = Staphylococcus aureus, read-out: IC50
[15] = Escherichia coli, read-out: IC50
[16] = Pseudomonas aeruginosa, read-out: IC50

Compound | IC50 [1] | MIC [1] | MIC ([2]; Enterococcus faecalis) | IC50 [2, 12] | IC50 [3] | MIC [3] | MIC ([4]; Klebsiella pneumoniae) | IC50 [4, 13] | IC50 [5] | MIC [5] | MIC ([6]; Staphylococcus aureus) | IC50 [6, 14] | MIC ([7]; Escherichia coli) | IC50 [7, 15] | IC50 [8] | MIC [8] | IC50 [9] | MIC [9] | IC50 [11] | MIC [11] | also measured
CCOC(=O)C(C)SC1=C(NC(C)(C)C)C(=O)c2ccccc2C1=O (centres undefined) | 38.3 µg/mL (≈ 106 µM) | 50 µg/mL (≈ 138 µM) | 6.25 µg/mL (≈ 17.3 µM) | 5.62 µg/mL (≈ 15.5 µM) | 22.2 µg/mL (≈ 61.4 µM) | 25 µg/mL (≈ 69.2 µM) | 6.25 µg/mL (≈ 17.3 µM) | 4.82 µg/mL (≈ 13.3 µM) | 10.3 µg/mL (≈ 28.5 µM) | 12.5 µg/mL (≈ 34.6 µM) | 6.25 µg/mL (≈ 17.3 µM) | 3.98 µg/mL (≈ 11 µM) | 6.25 µg/mL (≈ 17.3 µM) | 4.38 µg/mL (≈ 12.1 µM) | 21.8 µg/mL (≈ 60.4 µM) | 25 µg/mL (≈ 69.2 µM) | 10.9 µg/mL (≈ 30.2 µM) | 12.5 µg/mL (≈ 34.6 µM) | 2.8 µg/mL (≈ 7.75 µM) | 3.12 µg/mL (≈ 8.63 µM) | MIC ([10]; Pseudomonas aeruginosa): 6.25 µg/mL (≈ 17.3 µM); IC50 [10, 16]: 5.32 µg/mL (≈ 14.7 µM)
CCOC(=O)C(C)SC1=C(NN)C(=O)c2ccccc2C1=O (centres undefined) | 24.2 µg/mL (≈ 75.7 µM) | 50 µg/mL (≈ 156 µM) | 25 µg/mL (≈ 78 µM) | 22.3 µg/mL (≈ 69.5 µM) | 17.3 µg/mL (≈ 54.1 µM) | 25 µg/mL (≈ 78 µM) | 6.25 µg/mL (≈ 19.5 µM) | 5.28 µg/mL (≈ 16.5 µM) | 13.3 µg/mL (≈ 41.6 µM) | 25 µg/mL (≈ 78 µM) | 6.25 µg/mL (≈ 19.5 µM) | 5.65 µg/mL (≈ 17.6 µM) | 6.25 µg/mL (≈ 19.5 µM) | 5.2 µg/mL (≈ 16.2 µM) | 22.4 µg/mL (≈ 69.8 µM) | 25 µg/mL (≈ 78 µM) | 22 µg/mL (≈ 68.7 µM) | 25 µg/mL (≈ 78 µM) | 4.5 µg/mL (≈ 14 µM) | 6.25 µg/mL (≈ 19.5 µM) | MIC ([10]; Pseudomonas aeruginosa): 6.25 µg/mL (≈ 19.5 µM); IC50 [10, 16]: 4.62 µg/mL (≈ 14.4 µM)
CCOC(=O)C(C)SC1=C(NCCc2ccc(OC)c(OC)c2)C(=O)c2ccccc2C1=O (centres undefined) | > 50 µg/mL | > 50 µg/mL | > 50 µg/mL | > 50 µg/mL | > 50 µg/mL | > 50 µg/mL | 50 µg/mL (≈ 106 µM) | 42.5 µg/mL (≈ 90.6 µM) | > 50 µg/mL | > 50 µg/mL | 12.5 µg/mL (≈ 26.6 µM) | 9.52 µg/mL (≈ 20.3 µM) | 50 µg/mL (≈ 106 µM) | 44.3 µg/mL (≈ 94.3 µM) | > 50 µg/mL | > 50 µg/mL | > 50 µg/mL | > 50 µg/mL | 14 µg/mL (≈ 29.8 µM) | 25 µg/mL (≈ 53.2 µM) | MIC ([10]; Pseudomonas aeruginosa): 50 µg/mL (≈ 106 µM); IC50 [10, 16]: 46.2 µg/mL (≈ 98.5 µM)
CCOC(=O)CSC1=C(Cl)C(=O)c2ccccc2C1=O | > 50 µg/mL | > 50 µg/mL | 12.5 µg/mL (≈ 40.2 µM) | 9.24 µg/mL (≈ 29.7 µM) | > 50 µg/mL | > 50 µg/mL | 50 µg/mL (≈ 161 µM) | 33.2 µg/mL (≈ 107 µM) | 10.9 µg/mL (≈ 35.2 µM) | 12.5 µg/mL (≈ 40.2 µM) | 12.5 µg/mL (≈ 40.2 µM) | 6.98 µg/mL (≈ 22.5 µM) | 12.5 µg/mL (≈ 40.2 µM) | 8.56 µg/mL (≈ 27.5 µM) | > 50 µg/mL | > 50 µg/mL | 18.7 µg/mL (≈ 60.3 µM) | 25 µg/mL (≈ 80.4 µM) | > 50 µg/mL | > 50 µg/mL | MIC ([10]; Pseudomonas aeruginosa): 50 µg/mL (≈ 161 µM); IC50 [10, 16]: 44.4 µg/mL (≈ 143 µM)
GENTAMICIN | – | – | – | – | – | – | – | – | – | – | – | – | – | – | – | – | – | – | – | – | IC50 [2]: 0.62 µg/mL; IC50 [4]: 0.34 µg/mL; IC50 [6]: 4.46 µg/mL; IC50 [7]: 0.11 µg/mL; IC50 [10]: 24.64 µg/mL
OC(Cn1cncn1)(Cn1cncn1)c1ccc(F)cc1F [FLUCONAZOLE] | – | 0.5 µg/mL (≈ 1.63 µM) | – | – | – | 1 µg/mL (≈ 3.27 µM) | – | – | 0.46 µg/mL (≈ 1.5 µM) | 1 µg/mL (≈ 3.27 µM) | – | – | – | – | 1.06 µg/mL (≈ 3.46 µM) | 2 µg/mL (≈ 6.53 µM) | 1.45 µg/mL (≈ 4.73 µM) | 2 µg/mL (≈ 6.53 µM) | 0.63 µg/mL (≈ 2.06 µM) | 1 µg/mL (≈ 3.27 µM) | –
CCOC(=O)CSC1=C(NC(C)C)C(=O)c2ccccc2C1=O | 44.3 µg/mL (≈ 133 µM) | 50 µg/mL (≈ 150 µM) | 25 µg/mL (≈ 75 µM) | 20.6 µg/mL (≈ 61.9 µM) | 23.2 µg/mL (≈ 69.7 µM) | 25 µg/mL (≈ 75 µM) | 50 µg/mL (≈ 150 µM) | 46.9 µg/mL (≈ 141 µM) | 11.3 µg/mL (≈ 33.8 µM) | 12.5 µg/mL (≈ 37.5 µM) | 12.5 µg/mL (≈ 37.5 µM) | 18.5 µg/mL (≈ 55.4 µM) | 25 µg/mL (≈ 75 µM) | 25 µg/mL (≈ 74.9 µM) | 44.9 µg/mL (≈ 135 µM) | 50 µg/mL (≈ 150 µM) | 38.6 µg/mL (≈ 116 µM) | 50 µg/mL (≈ 150 µM) | 9.8 µg/mL (≈ 29.4 µM) | 12.5 µg/mL (≈ 37.5 µM) | MIC ([10]; Pseudomonas aeruginosa): 50 µg/mL (≈ 150 µM); IC50 [10, 16]: 35.9 µg/mL (≈ 108 µM)
CCOC(=O)C(C)SC1=C(N)C(=O)c2ccccc2C1=O (centres undefined) | 24.2 µg/mL (≈ 79.3 µM) | 25 µg/mL (≈ 81.9 µM) | 12.5 µg/mL (≈ 40.9 µM) | 8.54 µg/mL (≈ 28 µM) | 21.2 µg/mL (≈ 69.6 µM) | 25 µg/mL (≈ 81.9 µM) | 12.5 µg/mL (≈ 40.9 µM) | 11.7 µg/mL (≈ 38.3 µM) | 12 µg/mL (≈ 39.3 µM) | 12.5 µg/mL (≈ 40.9 µM) | 6.25 µg/mL (≈ 20.5 µM) | 6.16 µg/mL (≈ 20.2 µM) | 1.56 µg/mL (≈ 5.11 µM) | 1.18 µg/mL (≈ 3.86 µM) | 16.6 µg/mL (≈ 54.3 µM) | 25 µg/mL (≈ 81.9 µM) | 17.9 µg/mL (≈ 58.7 µM) | 25 µg/mL (≈ 81.9 µM) | > 50 µg/mL | > 50 µg/mL | MIC ([10]; Pseudomonas aeruginosa): 50 µg/mL (≈ 164 µM); IC50 [10, 16]: 34.5 µg/mL (≈ 113 µM)
CCOC(=O)CSC1=C(NCc2ccccc2)C(=O)c2ccccc2C1=O | > 50 µg/mL | > 50 µg/mL | > 50 µg/mL | > 50 µg/mL | > 50 µg/mL | > 50 µg/mL | 25 µg/mL (≈ 65.5 µM) | 22.3 µg/mL (≈ 58.6 µM) | > 50 µg/mL | > 50 µg/mL | 12.5 µg/mL (≈ 32.8 µM) | 11.6 µg/mL (≈ 30.4 µM) | 12.5 µg/mL (≈ 32.8 µM) | 9.2 µg/mL (≈ 24.1 µM) | > 50 µg/mL | > 50 µg/mL | > 50 µg/mL | > 50 µg/mL | 4.5 µg/mL (≈ 11.8 µM) | 6.25 µg/mL (≈ 16.4 µM) | MIC ([10]; Pseudomonas aeruginosa): > 50 µg/mL; IC50 [10, 16]: > 50 µg/mL
